Data: patent US20260209219A1, “SUBSTITUTED TETRAHYDROPYRROLO-PYRIDINONE COMPOUNDS AND THEIR USE IN TREATING MEDICAL CONDITIONS” (Karuna Therapeutics, Inc., priority 2022, published 2026)

Columns and labels:
[1] = test system: Sprague Dawley rats; assay: Amphetamine-evoked hyperlocomotion in rats (open field); type: in vivo, rat; details: adult male Sprague Dawley rats, 0.5 mg/kg amphetamine s.c., distance traveled over 60 min after AMP
Protocol: Animals: Adult male, Sprague Dawley rats (Envigo, Indianapolis, IN, USA) were housed in a colony maintained at 23° C. with 12 hour light/dark cycles (lights on at 0600 hour). All animals weighed 290-330 g at the beginning of the study and were equally divided into 5 groups (n=8 per group) and received one of the treatment conditions listed below. Animal protocols were approved by an Animal Care and Use Committee.
Behavioral Procedures: Studies were conducted in MedAssociates open field chambers (27.3 cm×27.3 cm×20.3 cm, MedAssociates, St. Albans, VT) in which movement was automatically tracked and recorded by 16 beam arrays. Administration pretreatment of the test article was determined to coincide with Tmax at the time of the amphetamine-evoked session with optimal route of administration. All groups were subcutaneously treated with 0.5 mg/kg amphetamine (AMP). […] Locomotor data (distance traveled) was recorded as 5-minute bins throughout the 90-minute session. […]
Statistical Analysis: Spontaneous locomotion (prior to AMP administration) was calculated as the total distance traveled during the first 30 minutes of the experimental session. AMP-evoked responses were calculated as the total distance traveled during the last 60 minutes of the experimental session which commenced immediately after AMP administration. Locomotor data were analyzed by a one-way ANOVA. […]

[2] = molecular target: T1, human M4 receptor (Homo sapiens, UniProt P08173); assay: M4 GTPγS PAM assay; type: biochemical; details: membranes of CHO-K1 cells stably expressing human M4; EC20 acetylcholine 40 nM
T1 construct: expressed in transfected cells; host or cells: CHO-K1 cells (membrane preparation)
T1 sequence (P08173 1-479): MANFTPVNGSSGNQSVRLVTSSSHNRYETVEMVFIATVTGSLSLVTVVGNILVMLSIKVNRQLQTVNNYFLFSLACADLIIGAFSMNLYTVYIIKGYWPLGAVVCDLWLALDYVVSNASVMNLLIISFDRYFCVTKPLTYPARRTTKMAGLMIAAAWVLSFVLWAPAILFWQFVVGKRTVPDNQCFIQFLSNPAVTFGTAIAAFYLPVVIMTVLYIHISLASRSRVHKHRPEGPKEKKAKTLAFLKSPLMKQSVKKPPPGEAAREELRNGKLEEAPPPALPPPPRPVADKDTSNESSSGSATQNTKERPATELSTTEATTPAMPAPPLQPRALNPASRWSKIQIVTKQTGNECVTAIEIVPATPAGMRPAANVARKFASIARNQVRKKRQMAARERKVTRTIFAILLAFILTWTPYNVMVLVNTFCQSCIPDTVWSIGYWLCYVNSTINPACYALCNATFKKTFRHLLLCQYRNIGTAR
Protocol: The M4 GTPγS PAM method was used. Membranes were prepared for GTPgS binding assays from CHO-K1 cells stably expressing human M4 receptor. Briefly, cells were grown in 5-layer cell culture flasks. Cells were washed with 50 mL of PBS and then dissociated with 0.05% trypsin. Dissociated cells were then collected by centrifugation at 650×g for 8 minutes at 4° C. Pellets were washed again in PBS by centrifugation and resuspended in 30 mL of 20 mM HEPES, 10 mM EDTA, pH 7.4. After sitting on ice for 30 min, membranes were collected by centrifugation at 50000×g for 15′ at 4° C., resuspended in 30 mL of 20 mM HEPES, 0.1 mM EDTA, pH 7.4 and collected again by centrifugation. Pellets were then washed twice by centrifugation in 30 mL of 20 mM HEPES, pH 7.4, and stored at −80° C. until the day of the assay. On the day of the assay, pellets were thawed on ice and resuspended in 1 mL of 20 mM HEPES, pH 7.4, 10 mM MgCl2, 100 mM NaCl using dounce homogenization. Membrane protein concentration is determined by BCA protein assay (Promega, Madison, WI) according to Promega guidelines.
On the day of the assay, serial dilutions of test PAM compounds were brought up in assay buffer (20 mM HEPES, 10 mM MgCl2, 100 mM NaCl) at 4× final assay concentration. […] of membrane homogenates (containing […] of membrane protein) were prepared in assay buffer supplemented with GDP at 4× final assay concentration (final assay concentration of GDP is 5 μM for M2 and 0.1 μM for M4) and dispensed into 96 well polypropylene, U-bottom Greiner plates. […] of vehicle or test PAM compound at 4× of final assay concentration diluted in the assay buffer were added to membrane and plates are incubated for 10-15 minutes at room temperature with gentle shaking. Then, […] of EC20 acetylcholine in assay buffer at 4× final assay concentration was added to assay plates (EC20 final assay concentrations was 40 nM for human M4).
Plates were then incubated, with shaking, for an additional 10-15 minutes. 25 mL of 0.4 nM ^35S-GTP (Perkin Elmer, Waltham, MA) in assay buffer was added to assay mixtures. The binding reaction is left on the shaker for 1 hour at room temperature. Membranes in assay reactions were then transferred to GF/C filter plates (Unifilter, Perkin Elmer) and washed three times using a FilterMate Harvester (Perkin Elmer) with cold assay buffer containing no GDP. Filter plates were then dried at 40° C. overnight followed by the addition of […] of Beta Plate Scintillation liquid. Plates are top and bottom sealed before being read on TopCount scintillation counter (Perkin Elmer, Waltham, MA).

EC50 [2] | Compound | Dose Amount of Compound at which rats displayed a reduction in amphetamine-evoked hyperlocomotion activity [1]
< 100 nM | Cc1cc(=O)n(C)c2c1CN(C(=O)CC1CC1c1ccc(C(F)(F)F)cc1)C2 (single isomer, unassigned) [Compound I-7] | 32 mg/kg
< 100 nM | Cc1c2c(n(C)c(=O)c1F)CN(C(=O)CC1CC1c1ccc(C(F)(F)F)cc1)C2 (stereo not shown) [Compound I-26] | 10 mg/kg
